Assay results published in patent US5110819A, “Substituted quinolines and medicinal use thereof” (Leo Pharmaceutical Products Ltd., priority 1987, dated 1992).

Tests used:
[1] = target: T1, guinea-pig tracheal strips (LTD4 concentration-response) (Cavia porcellus, UniProt Q2NNR5); experiment: LTD4 antagonism in guinea-pig tracheal strips (pKB); conditions: for Kb: Pharmacological Data table; for pKB value: guinea-pig tracheal strips, negative logarithm of the antagonist dissociation constant
T1 construct: from tissue; host or cells: guinea-pig tracheal strips
T1 sequence (Q2NNR5 1-340): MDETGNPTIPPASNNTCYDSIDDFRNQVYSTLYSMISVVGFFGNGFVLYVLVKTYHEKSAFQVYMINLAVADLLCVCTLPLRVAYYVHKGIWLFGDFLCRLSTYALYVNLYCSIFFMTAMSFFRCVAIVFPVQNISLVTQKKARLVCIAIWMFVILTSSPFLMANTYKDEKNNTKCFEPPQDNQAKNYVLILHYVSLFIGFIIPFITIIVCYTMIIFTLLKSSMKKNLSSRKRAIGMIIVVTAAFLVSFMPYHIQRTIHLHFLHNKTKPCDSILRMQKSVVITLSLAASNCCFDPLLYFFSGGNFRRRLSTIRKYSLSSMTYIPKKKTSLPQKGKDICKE
From the text: Leukotrine antagonists may be further characterized using guinea-pig tracheal strips instead of ileum strips (10). In this relevant in vitro model of human airways (11) tracheal strips are suspended in a physiological buffer containing indomethacin. A concentration-response curve to LTD4 is generated in the presence and absence of the leukotriene antagonist. From these curves the potency of a leukotriene antagonist may be expressed as the pKB value, the negative logarithm of the antagonist dissociation constant. The pKB value is determined as -log ([antagonist]/(dose ratio -1)), where the dose ratio is defined as EC50 (pressence of antagonist)/EC50 (absence of antagonist) and EC50 refers to the concentration of LTD4 eliciting 50% of the maximum response to LTD4 (12).

LTD4 receptor = target: T2, LTD4 receptor (Cavia porcellus, UniProt Q2NNR5); experiment: receptor binding: competition with [^3 H]LTD4 on guinea-pig lung membranes; conditions: negative logarithm of molar concentration inhibiting binding by 50%, read-out: pIC50 value ([^3 H]LTD4 binding) (converted)
T2 construct: from tissue; host or cells: guinea-pig lung membranes
T2 sequence (Q2NNR5 1-340): T1 sequence (Q2NNR5 1-340)
From the text: It is of importance to investigate the receptor binding properties of leukotriene antagonists in relation to their pKB values (13), i.e. to correlate antagonist receptor blocking with inhibition of smooth muscle contraction. Receptor binding studies may be performed with guinea-pig lung membranes in a direct competition assay between a leukotriene antagonist and [^3 H]LTD4 for binding to the LTD4 receptor (10,13).

cyclooxygenase = experiment: synthesis of cyclooxygenase products in A23187-stimulated rat peritoneal cells; assay type: cell-based; conditions: 10^-6 M
Experimental: (§1) The following method was used to assay 5-lipoxygenase activity in vitro: Rat peritoneal cells were harvested by i.p. injection of 10 ml Hank's balanced salt solution (GIBCO, cat. No. 4025, U.S.A.) containing 12.5 U/ml sodium heparin (Leo, Denmark) in anaesthesized rats. The resulting cell suspension, which mainly contained macrophages, was transferred to a test tube and washed twice by centrifugation (200 g, 10 min.) and resuspended in Hank's balanced salt solution containing 0.5% bovine serum albumin (BSA) (Sigma Chem. Co., U.S.A.). The cells from 9 rats were finally resuspended in Hank's balanced salt solution (with BSA) containing 5 μCi [1-^14 C]arachidonic acid (The Radiochemical Centre, Amersham, U.K.) and incubated for 90 minutes at 37° C. This caused labelling of cell membrane phospholipids as radioactive arachidonic acid was incorporated in the 2-position of the glycerol moiety. Excess arachidonic acid was then removed by washing the cells twice as described above. The cells were finally resuspended in the same solution (without BSA) at 10^7 cells/ml. 475 μl of the cell suspension was preincubated at 37° C. for 5 minutes with either 5 μl dimethylsulphoxide (DMSO) (control tube), or 5 μl of a drug solution in DMSO. Then 20 μl of a mixture of equal volumes of the calcium ionophore A23187, 10^-4 M in ethanol (Calbiochem, U.S.A.), and 0.4M CaCl2 in water was added. The final concentration of A23187 was thus 2×10^-6 M, and of Ca^++ 8 mM. After 5 minutes of incubation the tubes were transferred to an ice-bath and centrifuged for 10 minutes at 3,000 g (4° C.). An aliquot of the supernatant was counted by liquid scintillation spectrometry in order to calculate the total radioactive release induced by A23187 in presence of drugs. A decrease in radioactive release was taken as indication of phospholipase A2 inhibition. The supernatant was then extracted with ethyl acetate (2 ml), adjusted to pH 3 with 1N HCl and further extracted with 2 ml ethyl acetate. The combined extracts were evaporated to dryness in vacuo, the residue was redissolved in a small volume of methanol and applied by means of a Desaga Autospotter™ to a silica-gel coated thin-layer plate fitted with a polar concentrating zone (Merck Art. 11798, Darmstadt, F.R.G.). The plates were developed in the organic layer of the solvent mixture ethyl acetate/acetic acid/iso-octane/water (55:10:25:50). Radioactive spots were detected by autoradiography (AGFA-GEVAERT, Osray-RPI X-ray film, Belgium), and changes induced by drugs in the metabolic pattern of arachidonic acid were quantified by a laser densitometer (LKB, Ultroscan™ 2202, Bromma, Sweden) in combination with an integrating computer (SP 4100, Spectra-Physics, San Jose, Calif., U.S.A.).
(§2) These cells produced measurable amounts of radioactive 6-keto-prostaglandinF1α, thromboxane B2, prostaglandin D2, hydroxyheptadecatrienoic acid (HHT) (all cyclooxygenase products), 5-hydroxyeicosatetraenoic acid (5-HETE) and leukotriene B4 (both 5-lipoxygenase products).
(§3) At the same time, a decrease in synthesis of the cyclooxygenase products HHT, prostaglandin D2, thromboxane B2 and 6-keto-prostaglandin F1α was not observed. This pattern of drug activity is indicative of truly specific 5-lipoxygenase inhibition.

5-lipoxygenase = 5-lipoxygenase activity in vitro (leukotriene B4 and 5-HETE production in A23187-stimulated rat peritoneal cells); assay type: cell-based; conditions: 10^-6 M
Experimental: as §1, §2, §3

[2] = Pharmacological Data, IC50 (test not stated); conditions: Pharmacological Data table

| Kb [1] [nM] | pKB value [1] | IC50 (LTD4 receptor) [nM] | IC50 [2] [nM] | Compound | decrease in synthesis of the cyclooxygenase products HHT, prostaglandin D2, thromboxane B2 and 6-keto-prostaglandin F1α (cyclooxygenase) | decrease in the production of leukotriene B4 and 5-HETE (5-lipoxygenase) |
| --- | --- | --- | --- | --- | --- | --- |
| 5.01 | 8.3 | 50.1 | – | O=C(O)COc1cccc(CNc2cccc(OCc3ccc4ccccc4n3)c2)c1 [Example 1, 3-(2'-Quinolylmethoxy)-N-(3"-carboxymethoxybenzyl)aniline] | – | – |
| – | – | – | – | O=C(O)c1ccccc1NCc1cccc(OCc2ccc3ccccc3n2)c1 [Example 2] | not observed | significant and specific decrease |
| – | – | – | – | O=C(O)Cc1ccc(NCc2cccc(OCc3ccc4ccccc4n3)c2)cc1 [Example 8] | not observed | significant and specific decrease |
| 0.316 | 9.5 | 7.94 | 16 | O=C(O)COc1ccccc1CNc1cccc(OCc2ccc3ccccc3n2)c1 [Example 9, 3-(2'-quinolylmethoxy)-N-(2"-carboxymethoxybenzyl)aniline] | not observed | significant and specific decrease |
| 3.98 | 8.4 | 31.6 | – | O=C(O)COc1ccc(CNc2cccc(OCc3ccc4ccccc4n3)c2)cc1 [Example 10, 3-(2'-quinolylmethoxy)-N-(4"-carboxymethoxybenzyl)aniline] | – | – |
| – | – | – | – | O=C(O)CCOc1ccccc1CNc1cccc(OCc2ccc3ccccc3n2)c1 [Example 11] | not observed | significant and specific decrease |
| – | – | – | – | CC(Oc1ccc(CNc2cccc(OCc3ccc4ccccc4n3)c2)cc1)C(=O)O (stereo not shown) [Example 12, 3-(2'-quinolylmethoxy)-N-(4"-(1-carboxyethoxy)benzyl)aniline] | not observed | significant and specific decrease |
| – | – | – | – | CC(Oc1ccccc1CNc1ccc(OCc2ccc3ccccc3n2)cc1)C(=O)O (stereo not shown) [Example 13] | not observed | significant and specific decrease |
| – | – | – | – | O=C(O)CCCOc1ccccc1CNc1cccc(OCc2ccc3ccccc3n2)c1 [Example 14, 3-(2'-quinolylmethoxy)-N-(2"-carboxy-(3-propyloxy)benzyl)aniline] | not observed | significant and specific decrease |
| – | – | – | – | O=C(O)CCCOc1ccc(CNc2cccc(OCc3ccc4ccccc4n3)c2)cc1 [Example 16] | not observed | significant and specific decrease |
| – | – | – | – | O=C(NO)c1ccc(CN(Cc2cccc(F)c2)c2cccc(OCc3ccc4ccccc4n3)c2)cc1 [Example 20, 3(2'-Quinolylmethoxy)-N-(3"-fluorobenzyl)-N-(4'"-hydroxaminocarbonylbenzyl)aniline] | not observed | significant and specific decrease |
| – | – | – | – | O=C(NO)c1ccccc1Nc1cccc(OCc2ccc3ccccc3n2)c1 [Example 21, 3-(2'-Quinolylmethoxy)-N-(2"-hydroxaminocarbonylphenyl)-aniline] | not observed | significant and specific decrease |
| – | – | – | – | O=C(O)COc1ccccc1CNc1ccc(OCc2ccc3ccccc3n2)cc1 [Example 22, 4-(2'-Quinolylmethoxy)-N-(2"-carboxymethoxybenzyl)-aniline] | not observed | significant and specific decrease |
| – | – | – | 900 | c1ccc(CNc2ccc(OCc3ccc4ccccc4n3)cc2)cc1 [example 38] | – | – |
| 126 | – | – | 30 | c1ccc(CNc2cccc(OCc3ccc4ccccc4n3)c2)cc1 [example 39, reference compound] | – | – |
| – | – | – | > 10000 | c1ccc(CNc2ccccc2OCc2ccc3ccccc3n2)cc1 [example 67] | – | – |
| – | – | – | 40 | O=C(O)CN(Cc1ccccc1)c1cccc(OCc2ccc3ccccc3n2)c1 [ref. I] | – | – |
